Key:
[1] = tested on: hair follicle morphogenesis in embryonic skin cultures; experiment: Mouse embryonic skin organ culture, effects of reduced HA on hair follicle morphogenesis; format: cell-based; conditions: for in vivo skin stage to which the cultured skin / follicles correspond: after 72 hr in culture of 14.5 dpc skin, histology and syndecan-1 pattern
Experimental: To study the effects of HA misexpression in the development of a HF, an embryonic skin organ culture model was utilized. To assess how representative this model was for investigating the role of HA distribution in vivo, the expression of CD44 and HA in the cultured embryonic skin was first investigated. Embryonic skin cultures were established using pre-hair follicle initiation (14.5 dpc) skin and were incubated for 72 hrs. The cultured skin hair placodes became visible after 24 hr in culture. After 72 hr, skins were removed from culture, sectioned, and the expression of both HA and CD44 were assessed (FIG. 19). The dermal condensate was negative for HA staining (red) while expressing CD44 (green). Expression of both proteins in the HF of the cultured backskin was virtually indiscernible from that of 16.5 dpc back skin in vivo (FIG. 19). The effects of HA synthesis downregulation of hair follicle morphogenesis was investigated. Embryonic skin was cultured for 72 hrs in the presence of BSA (control) or one of two HAS inhibitors, leflunomide (Lef) (50 nM) or 4-methylumbelliferone (30 mM). In the presence of BSA, CD44 was localized predominantly to the dermal condensate, while HA remained absent from the dermal condensate (FIG. 20). […] To ascertain whether this reduction was due to an actual inhibitory effect of Lef on hair follicle morphogenesis and development, cultured skin from all treatments and control groups were enzymatically split and the separated epidermis inverted to allow the visualization of the developing epidermal hair germs. […] To explore the effects of a global degradation of HA protein on hair follicle morphogenesis within the skin cultures, embryonic skin was cultured for 72 hrs in the presence of either BSA (control) or hyaluronanase (HAase) (25 units/ml). […] Following 72 hrs in culture, embryonic skin from the four treatments described above were cryo-embedded, sectioned, and stained with hematoxylin and eosin (H&E) for histological study. […] After 72 hr in culture, follicles corresponded to those found in 14.5 dpc skin in vivo, both histologically and in their syndecan-1 expression patterns (FIG. 22).

hair follicle formation = conditions: whole skin organ culture; as previously shown (Kashiwagi 1997); cited from earlier work
[2] = Lef 50 nM, 4-methylumbelliferone 30 mM
[3] = embryonic skin cultured 72 hrs, Lef 50 nM, 4-methylumbelliferone 30 mM, HAase 25 units/ml
[4] = embryonic skin cultured 72 hrs, Lef 50 nM, 4-methylumbelliferone 30 mM, HAase 25 units/ml, vs BSA control

Question: Which results are given for Cc1cc(=O)oc2cc(O)ccc12 [4-methylumbelliferone]?
Answer: in vivo skin stage to which the cultured skin / follicles correspond [1, 2]: 16.5 dpc; Syndecan-1 expression (marker of the dermal condensation) ([1]; embryonic skin cultured 72 hrs, 4-methylumbelliferone 30 mM, HAase 25 units/ml): normal hair follicle development; histology (H&E) of cultured skin [1, 3]: indistinguishable from the control skin; number of visible follicles on the surface of the skin [1, 4]: no effect on the number of visible follicles

Question: Which hair follicle formation (hair follicle formation) does the source give for “EGF: growth factor used to inhibit hair follicle formation in skin organ culture (NSYPGCPSSYDGYCLNGGVCMHIESLDSYTCNCVIGYSGDRCQTRDLRWWELR; UniProt P01132 977-1029, looked up)” here?
Answer: Its hair follicle formation is “completely inhibited”.

Question: For Cc1oncc1C(=O)Nc1ccc(C(F)(F)F)cc1 [Lef, leflunomide], which “in vivo skin stage to which the cultured skin / follicles correspond” value [1, 2] is on record?
Answer: The value was 14.5 dpc.

Question: What about the “histology (H&E) of cultured skin” value [1, 3] of the same compound?
Answer: Its value is “inhibition of follicle development”.

Question: And the “number of visible follicles on the surface of the skin” value [1, 4]?
Answer: Its value is “reduction in the number of visible follicle on the surface of the skin”.

Question: What about the “size and number of epidermal hair germs on the inverted, enzymatically separated epidermis” value ([1]; embryonic skin cultured 72 hrs, Lef 50 nM, HAase 25 units/ml, vs BSA control) of the same compound?
Answer: Its value is “smaller and sparser than those of the control”.

Source: patent US9550976B2, “Methods for compact aggregation of dermal cells” (THE TRUSTEES OF COLUMBIA UNIVERSITY IN THE CITY OF NEW YORK, priority 2006, dated 2017)
